Results as given in paper PMC11271627, “Molecular dynamics-guided optimization of BGM0504 enhances dual-target agonism for combating diabetes and obesity” (Scientific Reports, 2024).
Marks after values point to notes of the source that are not given here.

Tested on: STZ + HFD-induced C57BL/6 mice
Experiment: STZ + HFD-induced diabetes and NASH model in C57BL/6 mice
Assay type: in vivo
Settings: Mean±SEM; for Ballooning Degeneration score / Inflammatory Cell Infiltration score / NAS (NAFLD Activity Score) / Steatosis score: liver H&E staining; for Fibrosis percentage: liver Sirius red staining, fibrosis area of total section area; for ALT / AST: serum; for ALT: HFD 8 weeks
Experimental: Both the control and model groups received a subcutaneous injection of the drug vehicle, while only the model group was fed a high-fat diet (HFD). […] This experiment involved selecting 30 SPF grade C57BL/6 pregnant female mice provided by Shanghai Jihui Experimental Animal Breeding Co., Ltd. Newborn male mice underwent subcutaneous injection of STZ (streptozotocin) (100 μg each) within 48 hours after birth and were nursed by their mothers for 4 weeks. During this period, we measured the fasting blood glucose of the mice and selected 65 diabetic male mice with fasting blood glucose values greater than or equal to 12 mmol/L as experimental animals. These mice were fed a HFD for 8 weeks to establish the STZ + HFD-induced diabetes and Nonalcoholic Steatohepatitis (NASH) model in male C57BL/6 mice. Fasting blood sugar was detected after 1 week of HFD feeding in these NASH model mice. Based on fasting blood sugar and body weight, they were randomly divided into the model group, the Tirzepatide-0.15 mg/kg group, the BGM0504-0.05 mg/kg group, the BGM0504-0.15 mg/kg group, and the BGM0504-0.5 mg/kg group. The treatment groups received administration once every 3 days. Additionally, their mothers nursed 10 newborn male mice without STZ injection for 4 weeks and then fed a regular maintenance diet as a control group. After HFD feeding, body weights were measured, and the animals’ food intake was recorded every 3 days until the end of the experiment. Three days after the last dose, animal weights were measured. Following a 6-hour fasting period, all experimental animals were anesthetized with an intraperitoneal injection of sodium pentobarbital. Non-anticoagulated whole blood was collected through the orbital venous plexus, left at room temperature for 30 minutes, and centrifuged at 5000 rpm for 5 minutes. The serum was separated and stored at -80°C for biochemical testing. After thawing the frozen serum samples, serum ALT, AST, TG, TC, HDL-c and LDL-c levels […] were measured using a Hitachi 7060 automatic biochemical detector. Insulin content was determined using an enzyme-linked immunoassay kit. After the dissection procedure, the liver was perfused with pre-cooled saline and then obtained and photographed. Its weight was also measured. Subsequently, the liver was immersed in 10% formalin for fixation and divided into two parts. One part underwent pathological hematoxylin and eosin (H&E) staining. The H&E staining was conducted on paraffin sections of all animal livers following the KCI pathology staining standard operating procedure (SOP). These stained sections were panoramically scanned using a NanoZoomer Digital Pathology scanner. Different fields of view were selected for observation at various magnifications, and the liver lobes in the sections were scored. The other part was subjected to pathological Sirius red (SR) staining. Similarly, SR staining was performed on paraffin sections of the liver following the KCI pathology staining SOP. The stained sections were also panoramically scanned using the NanoZoomer Digital Pathology scanner. Subsequently, VIS7.0 software was utilized to analyze the liver fibrosis area in the panoramically examined SR-stained sections, and the percentage of the liver fibrosis area with the total section area was calculated.

[1] = 0.05 mg/kg once every 3 days, n=11
[2] = 0.15 mg/kg once every 3 days, n=13
[3] = 0.5 mg/kg once every 3 days, n=13

## CC[C@H](C)[C@H](NC(=O)[C@H](CC(C)C)NC(=O)[C@H](Cc1c[nH]c2ccccc12)NC(=O)[C@H](CCC(N)=O)NC(=O)[C@@H](NC(=O)[C@H](Cc1ccccc1)NC(=O)[C@H](C)NC(=O)[C@H](CCCCN)NC(=O)[C@H](CCC(N)=O)NC(=O)[C@H](C)NC(=O)[C@@H](NC(=O)[C@H](CCCCN)NC(=O)[C@H](CC(=O)O)NC(=O)[C@H](CC(C)C)NC(=O)C(C)(C)NC(=O)[C@@H](NC(=O)[C@H](CO)NC(=O)[C@H](Cc1ccc(O)cc1)NC(=O)[C@H](CC(=O)O)NC(=O)[C@H](CO)NC(=O)[C@@H](NC(=O)[C@H](Cc1ccccc1)NC(=O)[C@@H](NC(=O)CNC(=O)[C@H](CCC(=O)O)NC(=O)C(C)(C)NC(=O)[C@@H](N)Cc1ccc(O)cc1)[C@@H](C)O)[C@@H](C)O)[C@@H](C)CC)[C@@H](C)CC)C(C)C)C(=O)N[C@@H](C)C(=O)NCC(=O)NCC(=O)N1CCC[C@H]1C(=O)N[C@@H](CO)C(=O)N[C@@H](CO)C(=O)NCC(=O)N[C@@H](C)C(=O)N1CCC[C@H]1C(=O)N1CCC[C@H]1C(=O)N1CCC[C@H]1C(=O)N[C@@H](CO)C(=O)N[C@@H](CCCCNC(=O)COCCOCCOCCNC(=O)COCCOCCOCCNC(=O)CC[C@H](NC(=O)CCCCCCCCCCCCCCCCCCC(=O)O)C(=O)O)C(N)=O [BGM0504]
[1]
  HDL-c: 2.30 ± 0.09 mmol/L
  LDL-c: 0.56±0.03^b mmol/L
  TC: 3.81±0.15^c mmol/L
  TG: 1.09±0.20^b mmol/L
  ALT: 73.97±9.20 U/L
  AST: 155.44±10.85 U/L
[2]
  HDL-c: 1.83 ± 0.22 mmol/L
  LDL-c: 0.65±0.10^c mmol/L
  TC: 3.25±0.12^c mmol/L
  TG: 0.84±0.12^b mmol/L
  ALT: 67.58±7.73^a U/L
  AST: 152.48±6.56^a U/L
[3]
  HDL-c: 2.13 ± 0.13 mmol/L
  LDL-c: 0.62±0.03^c mmol/L
  TC: 3.53±0.09^c mmol/L
  TG: 0.88±0.14^b mmol/L
  ALT: 58.46±5.38^b U/L
  AST: 150.54±6.26^a U/L
0.05 mg/kg, n=11
  Ballooning Degeneration score: 0.00±0.00
  Inflammatory Cell Infiltration score: 0.91±0.08^a
  NAS (NAFLD Activity Score): 1.42±0.14^a
  Steatosis score: 0.52±0.12^a
  Fibrosis percentage: 1.11±0.05^a %
0.15 mg/kg, n=13
  Ballooning Degeneration score: 0.00±0.00^a
  Inflammatory Cell Infiltration score: 0.90±0.06^a
  NAS (NAFLD Activity Score): 1.36±0.15^a
  Steatosis score: 0.46±0.13^a
  Fibrosis percentage: 1.10±0.04^b %
0.5 mg/kg, n=13
  Ballooning Degeneration score: 0.00±0.00
  Inflammatory Cell Infiltration score: 1.03±0.05^a
  NAS (NAFLD Activity Score): 1.36±0.10^a
  Steatosis score: 0.33±0.08^a
  Fibrosis percentage: 1.07±0.05^c %
